Assay [1] deals with T1, human CB1 receptor (Homo sapiens, UniProt P21554).
T1 construct: expressed in transfected cells; host or cells: HEK293
The experiment in a line: bioSensAll GAPL-Gi2 BRET biosensor assay (antagonism of CP-55,940). It is filed as cell-based. The settings on record: HEK293 cells transfected with hCB1 and GAPL-Gi2 biosensor, EC75 of CP-55,940 (0.1 nM), overnight incubation, read-out: CB1 wt Gi2 IC50. The procedure:
(§1) Using polyethylenimine (PEI) transfection agent, HEK293 cells were transfected in suspension with the human CB1 or CB1b receptor and one of the following bioSensAll® assays: GAPL-Gi2, or β-arrestin plasma membrane (PM) translocation biosensor (+GRK2). Cells were directly seeded in 96-well plates immediately following transfection.
(§2) Cells were incubated with coelenterazine (luciferase substrate) and different test compounds prior to the measurement of BRET signals.
i) GAPL sensors are used to monitor the activation of heterotrimeric G proteins at the plasma membrane upon receptor stimulation. Specifically, these multimolecular BRET sensors detect the plasma membrane recruitment of proteins that interact with active Ga subunits in a G protein family-selective manner. G protein activation following receptor stimulation generally leads to an increase in the BRET signal.
(§3) HEK293 cells were maintained in Dulbecco's Modified Eagle Medium (DMEM) (Wisent; cat #319-030-CL: without sodium pyruvate, with 4.5 g/L glucose, without L-glutamine) supplemented with 1% penicillin-streptomycin (Wisent; cat #450-201-EL) and 2 or 10% fetal bovine serum (Wisent cat #090150).
(§4) HEK293 cells were co-transfected with hCB1 or hCB1b and one of the above-listed bioSensAll® assays. For each transfection condition: • the total amount of transfected DNA was kept constant at 1 μg per mL of cell culture to be transfected; whenever necessary, salmon sperm DNA (Invitrogen, cat #15632011) was used as ‘carrier’ DNA to supplement plasmid DNA (i.e., biosensor and receptor); • the PEI (polyethylenimine 25 kDa linear, PolyScience, cat #23966) to DNA ratio (ug:ug) was fixed at 3:1.
(§5) Transfections were carried out as follows: • DNA and PEI were first diluted separately in 150 mM NaCl. The volume of the diluent in each tube corresponds to 5% of the cell culture volume to be transfected. • Once DNA and PEI were diluted, the PEI-containing solution was added to the DNA solution and the DNA/PEI mixture immediately vortexed for 5 seconds. • The DNA/PEI mixture was incubated for at least 20 minutes at room temperature to allow for the formation of DNA/PEI complexes. • During the incubation, HEK293 cells were detached, counted and re-suspended in culture medium (composition specified above). • At the end of the incubation period, the DNA/PEI mixture was added to the cells. • Cells were finally distributed in 96-well plates (White Opaque 96-well/Microplates, Greiner, cat #655083 or CulturPlate-96, White Opaque 96-well Microplate, PerkinElmer, cat #6005688) at a density of 30 000 cells per well.
(§6) At ˜48 hours post-transfection: • Using 450-Select TS Biotek plate washer, culture medium was aspirated and replaced with 100 μl of Hank's Balanced Salt Solution buffer (HBSS) (Wisent, cat #319-067CL: without red phenol; with sodium bicarbonate, with calcium and magnesium, with HEPES) per well. This process was performed a total of two times (i.e., 2 washes). • After the washing step, the HP D300 digital dispenser (Tecan) was used to inject increasing doses (12) of test compounds (ranging from 0-600 nM) to wells. Three to five minutes later, an EC75 of CP-55,940 (0.1 nM for GAPL-Gi2 assay; 100 nM for β-arrestin PM translocation biosensor (+GRK2)) was added to columns 2-12 of each 96-well plate.
(§7) BRET signals were determined by calculating the ratio of light emitted by GFP-acceptor (515 nm) over light emitted by luciferase-donor (400 nm). All BRET ratios were standardized using the equation below with pre-established BRET values for positive and negative controls. The standardized BRET ratio is referred to as universal BRET (uBRET).
(§8) Resulting dose-response curves were fitted using the four-parameter logistic non-linear regression model in GraphPad Prism 9.

The target in assay [2] is T1, human CB1 receptor. The experiment in a line: bioSensAll β-arrestin plasma membrane translocation BRET biosensor (+GRK2) assay (antagonism of CP-55,940). Type of assay: cell-based. The settings on record: HEK293 cells transfected with hCB1 and β-arrestin PM translocation biosensor (+GRK2), EC75 of CP-55,940 (100 nM), overnight incubation, read-out: CB1 wt βarr2 IC50. On the procedure:
as §1, §2
ii) The multimolecular β-arrestin membrane recruitment biosensors allow for real-time spatio-temporal monitoring of β-arrestin 1 and β-arrestin 2 following GPCR activation. Specifically, these β-arrestin sensors were designed to detect the recruitment of proteins to the plasma membrane (β-arrestin PM) with localization to compartment resulting in an increased BRET signal.
as §3, §4, §5, §6, §7, §8
For orientation: BRET reads energy transfer from a luciferase to a nearby fluorophore.

The text below walks through data of US20250145628A1, “PYRAZOLOPYRIMIDINES, COMPOSITIONS COMPRISING THEM AND USES THEREOF” (Novo Nordisk A/S, priority 2022, published 2025).

T1 sequence (P21554 whole entry): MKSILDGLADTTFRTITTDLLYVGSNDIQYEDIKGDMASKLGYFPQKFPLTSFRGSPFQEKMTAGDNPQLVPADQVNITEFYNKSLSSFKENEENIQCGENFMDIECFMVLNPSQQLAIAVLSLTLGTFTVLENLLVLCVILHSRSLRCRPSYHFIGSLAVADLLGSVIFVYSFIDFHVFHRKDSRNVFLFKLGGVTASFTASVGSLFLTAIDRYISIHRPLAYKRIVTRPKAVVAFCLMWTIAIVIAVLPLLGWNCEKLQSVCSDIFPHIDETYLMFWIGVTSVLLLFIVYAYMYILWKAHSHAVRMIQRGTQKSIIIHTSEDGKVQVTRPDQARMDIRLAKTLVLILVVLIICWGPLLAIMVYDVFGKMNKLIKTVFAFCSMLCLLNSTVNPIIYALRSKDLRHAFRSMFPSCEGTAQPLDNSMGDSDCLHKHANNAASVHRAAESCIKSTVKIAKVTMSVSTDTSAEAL

For the compound `CCNC(=O)CNc1cc(N2CCC(C)(C(N)=O)CC2)n2nc(-c3ccccc3Cl)c(-c3ccc(Cl)cc3)c2n1` [Compound 47, 1-[2-(2-chlorophenyl)-3-(4-chlorophenyl)-5-[[2-(ethylamino)-2-oxo-ethyl]amino]pyrazolo[1,5-a]pyrimidin-7-yl]-4-methyl-piperidine-4-carboxamide], the values for the IC50 at human CB1 receptor [1] and on human CB1 receptor [2] were 33.7 nM and 131 nM, respectively.

For the compound `CC(C)(O)CNc1cc(N2CCC(C)(C(N)=O)CC2)n2nc(-c3ccccc3Cl)c(-c3ccc(Cl)cc3)c2n1` [Compound 49, 1-[2-(2-chlorophenyl)-3-(4-chlorophenyl)-5-[(2-hydroxy-2-methyl-propyl)amino]pyrazolo[1,5-a]pyrimidin-7-yl]-4-methyl-piperidine-4-carboxamide], the half-inhibitory concentration (IC50) at human CB1 receptor [1] came to 9.13 nM; on human CB1 receptor [2], 25.4 nM.

`C[C@H](CO)Oc1cc(-c2ccc(C(F)(F)F)nc2)n2nc(-c3ccccc3Cl)c(-c3ccc(Cl)cc3)c2n1` [Compound 71(R)]: the IC50 on human CB1 receptor [1] was found to be 3.08 nM; at human CB1 receptor [2] it was 12.3 nM.

Turning to `CC1(C(N)=O)CCN(c2cc(N3CCC[C@H]3C(N)=O)nc3c(-c4ccc(Cl)cc4)c(-c4ccccc4Cl)nn23)CC1` [Compound 37, 1-[5-[(2S)-2-carbamoylpyrrolidin-1-yl]-2-(2-chlorophenyl)-3-(4-chlorophenyl)pyrazolo[1,5-a]pyrimidin-7-yl]-4-methyl-piperidine-4-carboxamide], the results for the IC50 at human CB1 receptor [1] and at human CB1 receptor [2] were 5.91 nM and 35.3 nM, respectively.

Regarding `COc1ccccc1-c1nn2c(-c3ccc(C(F)(F)F)cc3)cc(N3CCC[C@H]3CO)nc2c1-c1ccc(Cl)cc1` [Compound 6, [(2S)-1-[3-(4-chlorophenyl)-2-(2-methoxyphenyl)-7-[4-(trifluoromethyl)phenyl]pyrazolo[1,5-a]pyrimidin-5-yl]-pyrrolidin-2-yl]methanol], the IC50 at human CB1 receptor [1] amounted to 14.1 nM; at human CB1 receptor [2], 146 nM.

`CC(C)(O)COc1cc(N2CCC(C)(O)CC2)n2nc(-c3ccccc3Cl)c(-c3ccc(Cl)cc3)c2n1` [Compound 14, 1-[2-(2-chlorophenyl)-3-(4-chlorophenyl)-5-(2-hydroxy-2-methyl-propoxy)pyrazolo[1,5-a]pyrimidin-7-yl]-4-methyl-piperidin-4-ol]: the IC50 on human CB1 receptor [1] stood at 2.52 nM; at human CB1 receptor [2] it was 9.25 nM.

Regarding `CC(C)(O)COc1cc(N2CCC[C@@H](C(N)=O)C2)n2nc(-c3ccccc3Cl)c(-c3ccc(Cl)cc3)c2n1` [Compound 17(R), 1-[2-(2-chlorophenyl)-3-(4-chlorophenyl)-5-(2-hydroxy-2-methyl-propoxy)pyrazolo[1,5-a]pyrimidin-7-yl]piperidine-3-carboxamide], the IC50 on human CB1 receptor [1] was found to be 17.1 nM; on human CB1 receptor [2], 49.8 nM.

Turning to `COc1ccccc1-c1nn2c(-c3cccc(C#N)c3)cc(N3CCC[C@H]3CO)nc2c1-c1ccc(Cl)cc1` [Compound 3, 3-[3-(4-chlorophenyl)-5-[(2S)-2-(hydroxymethyl)pyrrolidin-1-yl]-2-(2-methoxyphenyl)pyrazolo[1,5-a]pyrimidin-7-yl]benzonitrile], the IC50 at human CB1 receptor [1] stood at 1.77 nM; on human CB1 receptor [2], 9.94 nM.

For `CN(C)C(=O)CN(C)c1cc(N2CC(CC(N)=O)C2)n2nc(-c3ccccc3Cl)c(-c3ccc(Cl)cc3)c2n1` [Compound 32, 2-[1-[2-(2-chlorophenyl)-3-(4-chlorophenyl)-5-[[2-(dimethylamino)-2-oxo-ethyl]-methyl-amino]pyrazolo[1,5-a]pyrimidin-7-yl]azetidin-3-yl]acetamide], the IC50 was 584 nM at human CB1 receptor [1] and over 10000 nM on human CB1 receptor [2].

Consider `CC(C)(O)COc1cc(N2CCN(S(=O)(=O)C(F)(F)F)CC2)n2nc(-c3ccccc3Cl)c(-c3ccc(Cl)cc3)c2n1` [Compound 15, 1-[2-(2-chlorophenyl)-3-(4-chlorophenyl)-7-[4-(trifluoromethylsulfonyl)piperazin-1-yl]pyrazolo[1,5-a]pyrimidin-5-yl]oxy-2-methyl-propan-2-ol], for which the results for the IC50 on human CB1 receptor [1] and at human CB1 receptor [2] were 3.97 nM and 9.55 nM, respectively.

Turning to `CN(CP(C)(C)=O)c1cc(N2CCC[C@@H](C(N)=O)C2)n2nc(-c3ccccc3Cl)c(-c3ccc(Cl)cc3)c2n1` [Compound 34, (3R)-1-[2-(2-chlorophenyl)-3-(4-chlorophenyl)-5-[dimethylphosphorylmethyl(methyl)amino]pyrazolo[1,5-a]pyrimidin-7-yl]piperidine-3-carboxamide], the IC50 on human CB1 receptor [1] is over 10000 nM; on human CB1 receptor [2], 155 nM.

For `CN(CC(C)(C)O)c1cc(N2CCC(C)(C(N)=O)CC2)n2nc(-c3ccccc3Cl)c(-c3ccc(Cl)cc3)c2n1` [Compound 20, 1-[2-(2-chlorophenyl)-3-(4-chlorophenyl)-5-[(2-hydroxy-2-methyl-propyl)-methyl-amino]pyrazolo[1,5-a]pyrimidin-7-yl]-4-methyl-piperidine-4-carboxamide], the values for the IC50 at human CB1 receptor [1] and on human CB1 receptor [2] were 5.53 nM and 22.8 nM, respectively.

For `CC(=O)NC1(C)CCN(c2cc(N(C)CCC(N)=O)nc3c(-c4ccc(Cl)cc4)c(-c4ccccc4Cl)nn23)CC1` [Compound 27, 3-[[7-(4-acetamido-4-methyl-1-piperidyl)-2-(2-chlorophenyl)-3-(4-chlorophenyl)pyrazolo[1,5-a]pyrimidin-5-yl]-methyl-amino]propanamide], the concentration for half-maximal inhibition (IC50) came out at 1.28 nM on human CB1 receptor [1] and 4.69 nM on human CB1 receptor [2].

In the case of `CN(CCO)c1cc(N2CCC(C)(C(N)=O)CC2)n2nc(-c3ccccc3Cl)c(-c3ccc(Cl)cc3)c2n1` [Compound 10, 1-[2-(2-chlorophenyl)-3-(4-chlorophenyl)-5-[2-hydroxyethyl(methyl)amino]pyrazolo[1,5-a]pyrimidin-7-yl]-4-methyl-piperidine-4-carboxamide], the figures for the IC50 at human CB1 receptor [1] and at human CB1 receptor [2] were 0.255 nM and 1.74 nM, respectively.

On to `CCOC1(C(N)=O)CCN(c2cc(N(C)CCO)nc3c(-c4ccc(Cl)cc4)c(-c4ccccc4Cl)nn23)CC1` [Compound 43, 1-[2-(2-chlorophenyl)-3-(4-chlorophenyl)-5-[2-hydroxyethyl(methyl)amino]pyrazolo[1,5-a]pyrimidin-7-yl]-4-ethoxy-piperidine-4-carboxamide], for which the IC50 is 0.97 nM at human CB1 receptor [1] and 2.75 nM at human CB1 receptor [2].

For `CN(CP(C)(C)=O)c1cc(N2CC[C@H](CC(N)=O)C2)n2nc(-c3ccccc3Cl)c(-c3ccc(Cl)cc3)c2n1` [Compound 30, 2-[(3R)-1-[2-(2-chlorophenyl)-3-(4-chlorophenyl)-5-[dimethylphosphorylmethyl(methyl)amino]pyrazolo[1,5-a]pyrimidin-7-yl]pyrrolidin-3-yl]acetamide], the IC50 at human CB1 receptor [1] turned out to be 679 nM; on human CB1 receptor [2], 198 nM.

Turning to `CN(C)C(=O)CN(C)c1cc(N2CCC(C)(C(N)=O)CC2)n2nc(-c3ccccc3Cl)c(-c3ccc(Cl)cc3)c2n1` [Compound 25, 1-[2-(2-chlorophenyl)-3-(4-chlorophenyl)-5-[[2-(dimethylamino)-2-oxo-ethyl]-methyl-amino]-pyrazolo[1,5-a]pyrimidin-7-yl]-4-methyl-piperidine-4-carboxamide], the values for the IC50 at human CB1 receptor [1] and at human CB1 receptor [2] were 6.47 nM and 17.5 nM, respectively.

One may read the IC50 as the concentration needed to halve the response being measured.
